The record followed here is patent US20130204033A1, “ANTIPROLIFERATIVE COMPOUNDS, CONJUGATES THEREOF, METHODS THEREFOR, AND USES THEREOF” (Medarex, Inc., priority 2009, published 2013).

pEC50: −log10 of the molar value. Like-named read-outs stand apart in the source and are kept apart here.

Holding throughout (assay type): cell-based, human
One experiment has as its system H740. In words: 3H thymidine proliferation assay, H740. To be noted: 3H thymidine method, 72 h incubation, read-out: EC50, H740. How it is done: (§1) This example generally describes the procedures used to assay the antiproliferative activity of compounds of this invention or their conjugates. Human tumor cell lines were obtained from the American Type Culture Collection (ATCC), P.O. Box 1549, Manassas, Va. 20108, USA, and cultured according to instruction from the ATCC. Cells were seeded at 1.0×10^3 or 1.0×10^4 cells/well in 96-well plates for 3 h for ATP assays or ^3H thymidine assays, respectively. 1:3 serial dilutions of free (unconjugated) compounds or their conjugates were added to the wells. Plates were allowed to incubate for 24 to 72 h. The ^3H thymidine plates were pulsed with 1.0 μCi of ^3H-thymidine per well for the last 24 hours of the total incubation period, harvested, and read on a Top Count Scintillation Counter (Packard Instruments, Meriden, Conn.). ATP levels in the ATP plates were measured using the […]-GLO® Luminescent Cell Viability kit following the manufacturer's manual and read on a GLOMAX® 20/20 luminometer (both from Promega, Madison, Wis., USA). The EC50 values—the concentration at which an agent inhibits or reduces cell proliferation by 50% —were determined using PRISM™ software, version 4.0 (GraphPad Software, La Jolla, Calif., USA).
(§2) Using the ^3H thymidine or the ATP luminescence assay, or both, the activities of compounds of this invention were assayed against the following cancer cell lines: HCT-15 (colorectal cancer, multi-drug resistant (MDR)); Hep3B (liver cancer); LNCaP (prostate cancer, androgen receptor positive (AR^+)); MDA-MB-231 (breast cancer, estrogen receptor, progesterone receptor, and Her2 negative (triple negative)); A2058 (melanoma); U-87 MG (glioblastoma); NCI-H460 (NSCLC); A549 (NSCLC); HPAC (pancreatic cancer, primary); PC3 (prostate cancer, AR); BT474 (breast cancer, Her2 highly positive (Her2hi)); SKOV3 (ovarian cancer, Her2hi); 786-O (renal cancer); UO-31 (renal cancer, MDR); NCI-H740 (SCLC); DMS53 (SCLC); SK-BR3 (breast cancer, Her2hi); ZR-75 (breast cancer, estrogen receptor positive); OVCAR3 (ovarian cancer); HL-60 (APL); OVCAR8/Adr (ovarian cancer, MDR); CEM-Cl (ALL); Nomo-1 (AML); RPMI-8226 (MM)); Raji (lymphoma); SW-480 (colorectal cancer, metastatic); SW-620 (colorectal cancer); and H226 (lung cancer). (Not all compounds were assayed against all cell lines.)
(§3) Table 2 provides the data for proliferation assays using the ^3H thymidine method, with an incubation period of 72 h.

Another experiment concerns HPAC. Kind of experiment: 3H thymidine proliferation assay, HPAC. The note with it: 3H thymidine method, 72 h incubation, read-out: EC50, HPAC. How it is done:
as §1, §2, §3

Experiment [1] deals with MDA-MB-231. In words: 3H thymidine proliferation assay, MDA-MB-231. The note with it: 3H thymidine method, 72 h incubation, read-out: EC50, MDA-MB-231. How it is done:
as §1, §2, §3

A further experiment relates to LNCaP. Kind of experiment: 3H thymidine proliferation assay, LNCaP. To be noted: 3H thymidine method, 72 h incubation, read-out: EC50, LNCaP. Here is the method: as §1, §2, §3
Another experiment deals with 786-O. In words: ATP luminescence proliferation assay, 786-O. The note with it: ATP luminescence, 786-O. A digest of the protocol: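 Cells seeded at 1.0×10^3 cells/well for 3 h, then exposed to 1:3 serial dilutions of free compounds or conjugates for 48, 72 or 96 h, as noted. ATP measured by luminescent cell viability kit; EC50 taken as concentration reducing proliferation by 50%.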

In another experiment the test system is UO-31. Kind of experiment: ATP luminescence proliferation assay, UO-31. To be noted: ATP luminescence, UO-31, 48 h incubation, read-out: EC50 UO-31 (48 h). How it is done: as §1, §2
(§4) Table 3 provides the data for the ATP luminescence proliferation assays, with an incubation period of 48, 72, or 96 h, as noted.

Experiment [2] has as its system DMS53. In words: 3H thymidine proliferation assay, DMS53. To be noted: 3H thymidine method, 72 h incubation, read-out: EC50, DMS53. Here is the method: as §1, §2, §3
For experiment [3], the system named is DMS53. In words: ATP luminescence proliferation assay, DMS53. To be noted: ATP luminescence, DMS53, 72 h incubation, read-out: EC50 DMS53 (72 h). How it is done:
as §1, §2, §4

For another experiment, the system named is CEM-C1. Kind of experiment: 3H thymidine proliferation assay, CEM-C1. To be noted: 3H thymidine method, 72 h incubation, read-out: EC50, CEM-C1. How it is done:
as §1, §2, §3

For experiment [4], the system named is MDA-MB-231. Kind of experiment: ATP luminescence proliferation assay, MDA-MB-231. The note with it: ATP luminescence, MDA-MB-231, 72 h incubation, read-out: EC50 MDA-MB-231 (72 h). How it is done:
as §1, §2, §4

For another experiment, the system named is HCT-15. In words: 3H thymidine proliferation assay, HCT-15. The note with it: 3H thymidine method, 72 h incubation, read-out: EC50, HCT-15. How it is done:
as §1, §2, §3

Another experiment concerns BT474. In words: ATP luminescence proliferation assay, BT474. To be noted: ATP luminescence. Here is the method:
as §1, §2, §4

Another experiment relates to A2058. Kind of experiment: ATP luminescence proliferation assay, A2058. The note with it: ATP luminescence, A2058, 72 h incubation, read-out: EC50 A2058 (72 h). Here is the method: as §1, §2, §4
The subject of experiment [5] is Nomo-1. Kind of experiment: 3H thymidine proliferation assay, Nomo-1. The note with it: 3H thymidine method, 72 h incubation, read-out: EC50, Nomo-1. How it is done: as §1, §2, §3
For another experiment, the system named is Hep3B. In words: 3H thymidine proliferation assay, Hep3B. The note with it: 3H thymidine method, 72 h incubation, read-out: EC50, Hep3B. How it is done:
as §1, §2, §3

For experiment [6], the system named is Nomo-1. Kind of experiment: ATP luminescence proliferation assay, Nomo-1. To be noted: ATP luminescence, Nomo-1, 72 h incubation, read-out: EC50 Nomo-1 (72 h). Here is the method:
as §1, §2, §4

Another experiment has as its system SK-BR3. In words: ATP luminescence proliferation assay, SK-BR3. The note with it: ATP luminescence. Here is the method: as §1, §2, §4
The next experiment relates to RPMI-8226. In words: ATP luminescence proliferation assay, RPMI-8226. The note with it: ATP luminescence, RPMI-8226, 72 h incubation, read-out: EC50 RPMI-8226 (72 h). How it is done: as §1, §2, §4
Setting [7] is: 72 h incubation, read-out: EC50 786-O (72 h).
Where [8] appears, read: BT474, 48 h incubation, read-out: EC50 BT474 (48 h).
[9] abbreviates: SK-BR3, 48 h incubation, read-out: EC50 SK-BR3 (48 h).

As to `Nc1ccc(C(=O)Nc2ccc3[nH]c(C(=O)N4C[C@@H](CCl)c5c4cc(O)c4ccccc54)cc3c2)cc1` [CBI, reference compound], the pEC50 with H740 (Homo sapiens) is 10.01; with HPAC (Homo sapiens, HPAC), 10.20; with MDA-MB-231 [1] (Homo sapiens, MDA-MB-231) it was 10.72; in the experiment on LNCaP (Homo sapiens, LNCaP), 10.29; in the experiment with 786-O (Homo sapiens, 786-0, 48 h incubation, read-out: EC50 786-O (48 h)) it was 8.80; in the experiment on UO-31 (Homo sapiens) it was 8.38. The pEC50 with DMS53 [2] (Homo sapiens, DMS-53) was 8.82; in the experiment with DMS53 [3] (Homo sapiens, DMS-53) it was 8.42; in the experiment on CEM-C1 (Homo sapiens, CEM/C1) it was 9.96; with MDA-MB-231 [4] (Homo sapiens) it was 8.51; with HCT-15 (Homo sapiens, HCT-15), 10.40; in the experiment with BT474 (Homo sapiens, BT-474, BT474, 72 h incubation, read-out: EC50 BT474 (72 h)), 8.26. Further, the pEC50 was 9.70 with A2058 (Homo sapiens); 10.80 with Nomo-1 [5] (Homo sapiens, NOMO-1); 10.70 with Hep3B (Homo sapiens, Hep3B); 9.43 in the experiment on Nomo-1 [6] (Homo sapiens); 8.51 with SK-BR3 (Homo sapiens, SK-BR-3, SK-BR3, 72 h incubation, read-out: EC50 SK-BR3 (72 h)); 8.39 with RPMI-8226 (Homo sapiens).
In the case of `CCC[C@H](NC(=O)[C@H](Cc1ccccc1)NC(=O)c1csc([C@@H](C[C@H](C(C)C)N(C)C(=O)[C@@H](NC(=O)[C@H]2CCCCN2C)[C@@H](C)CC)OC)n1)C(=O)OC` [Compound 19], the pEC50 is 8.42 with H740; below 7.00 in the experiment on HPAC; below 7.00 in the experiment on LNCaP; 7.40 in the experiment with 786-O (setting [7]); below 7.00 in the experiment on UO-31; below 7.00 in the experiment with DMS53 [2]. The pEC50 was 7.06 in the experiment with DMS53 [3]; 7.66 in the experiment on CEM-C1; 7.49 in the experiment with MDA-MB-231 [4]; 5.97 with HCT-15; 8.06 with BT474 (setting [8]); 7.59 in the experiment on A2058. The pEC50 in the experiment on Nomo-1 [5] was 8.89; with Hep3B, 7.28; in the experiment with Nomo-1 [6] it was 8.28; in the experiment with SK-BR3 (setting [9]) it was 8.41; in the experiment with RPMI-8226, 8.02.
As for `CC[C@H](C)[C@H](NC(=O)[C@H]1CCCCN1C)C(=O)N(C)[C@H](C[C@@H](OC)c1nc(C(=O)N[C@@H](Cc2ccc(N)cc2)CC(C)C(=O)O)cs1)C(C)C` (stereo partly shown) [Compound 51], the pEC50 was 7.43 with H740; 8.19 in the experiment on HPAC; 8.06 in the experiment on MDA-MB-231 [1]; 7.39 in the experiment with LNCaP; 7.72 with 786-O (setting [7]); below 7.00 in the experiment on UO-31. In addition, the pEC50 in the experiment on DMS53 [2] is 7.62; with DMS53 [3], 7.34; in the experiment on CEM-C1, 8.70; in the experiment with HCT-15, 7.00; with BT474 (setting [8]) it was 7.96; in the experiment with A2058 it was 8.26. The pEC50 in the experiment with Nomo-1 [5] was 8.46; with Hep3B, 8.38; with Nomo-1 [6], 8.13; with SK-BR3 (setting [9]), 7.89; in the experiment with RPMI-8226 it was 8.28.

A word on the pEC50: it is −log10 of the EC50, conventionally taken in molar units.
